In brackets after ≈: the same amount, converted by molar mass. Like-named read-outs stand apart in the source and are kept apart here.
Experiments:
Bacteroides Fragilis = assay: Growth inhibitory activity, antibiotic dilution technique (obligate anaerobes); format: cell-based; details: 3 strains, geometric mean when applicable, read-out: Minimum inhibitory concentration
Description: Antibiotic spectrum. […] Procedures were as follows:
c. Obligate anaerobes. The assay was performed on solid medium, consisting of Brain Heart Infusion Broth (BBL) supplemented with 5% defibrinated sheep blood and 1% Ionagar (Colab). […] The plates were incubated at 37° C. for 48 hours under the oxygen-free conditions attained with a Gas-Pak (BBL) Brewer jar system.

Staphylococcus Aureus = assay: Effect of inoculum size on susceptibility of Staphylococcus aureus; format: cell-based; details: for MICB /MICA: MIC at 10^6 over MIC at 10^2 organisms; for MIC: Staphylococcus aureus, geometric means, read-out: Minimum inhibitory concentration
Klebsiella pneumoniae = assay: Minimum growth inhibitory and bactericidal concentrations for Enterobacteriaceae; format: cell-based; details: for MBC: read-out: MBC, minimum bactericidal concentration; for MIC: read-out: MIC, Minimum growth inhibitory concentration
From the text: (§1) Miscellaneous. Methods for determining bactericidal activity and susceptibility to cell-free β-lactamase were those previously used; Leitner et al., BL-S640, A Cephalosporin With a Broad Spectrum of Antibacterial Activity: Properties in vitro, Antimicrob. Agents Chemother. 7:298-305 (1975).
(§2) *MIC, Minimum growth inhibitory concentration; MBC, minimum bactericidal
(§3) concentration; expressed as micrograms per milliliter. The inoculum was […]

Proteus mirabilis = assay: as above; format: cell-based; details: for MBC: read-out: MBC, minimum bactericidal concentration; for MIC: read-out: MIC, Minimum growth inhibitory concentration
From the text: as §1, §2, §3

Proteus vulgaris = assay: as above; format: cell-based; details: Proteus vulgaris, inoculum 10^4 cells; for MBC: read-out: MBC, minimum bactericidal concentration; for MIC: read-out: MIC, Minimum growth inhibitory concentration
From the text: as §1, §2, §3

Enterobacter cloacae = assay: Intramuscular treatment of systemically infected mice; format: in vivo; details: im
From the text: Treatment of Systemically Infected Mice. The procedures were identical with those published previously [Leitner et al., BL-S640, a Cephalosporin With a Broad Spectrum of Antibacterial Activity: Bioavailability and Therapeutic Properties in Rodents, Antimicrob. Agents Chemother.
(a) the hog gastric mucin used in infections with Staphylococcus aureus No. 2 was purchased from American Laboratories, Inc., Omaha, Neb.

[1] = Recovery in urine after intramuscular injection; details: rat, im, 10 mg/kg
Edwardsiella tarda = assay: Growth inhibitory activity, antibiotic dilution technique; details: read-out: Minimum inhibitory concentration
Pasteurella multocida = assay: as above; details: read-out: Minimum inhibitory concentration
[2] = tested on: Bordetella bronchiseptica; assay: as above; details: read-out: Minimum inhibitory concentration
Haemophilus influenzae = assay: as above; details: including 9 ampicillin-resistant strains
Escherichia coli = assay: Effect of inoculum size on susceptibility of Enterobacteriaceae
[3] = Klebsiella pneumoniae strain 1, inoculum 10^4 cells
[4] = Klebsiella pneumoniae strain 2, inoculum 10^4 cells
[5] = Klebsiella pneumoniae strain 3, inoculum 10^4 cells
[6] = Klebsiella pneumoniae strain 4, inoculum 10^4 cells
[7] = Klebsiella pneumoniae strain 5, inoculum 10^4 cells
[8] = Klebsiella pneumoniae strain 6, inoculum 10^4 cells
[9] = Proteus mirabilis strain 1, inoculum 10^4 cells
[10] = Proteus mirabilis strain 2, inoculum 10^4 cells
[11] = Proteus mirabilis strain 3, inoculum 10^4 cells
[12] = Proteus mirabilis strain 4, inoculum 10^4 cells
[13] = Proteus mirabilis strain 5, inoculum 10^4 cells

O=C(Cc1cccs1)N[C@@H]1C(=O)N2C(C(=O)[O-])=C(C[n+]3ccccc3)CS[C@H]12 [Cephaloridine]
MIC (Bacteroides Fragilis): 79 µg/mL (≈ 190 µM) | MICB /MICA (Staphylococcus Aureus; Lacking penicillinase, 3 strains): 1.6 | MICB /MICA (Staphylococcus Aureus; Penicillinase producer, 26 strains): 20 | MIC (Staphylococcus Aureus; Lacking penicillinase, 3 strains, A, Inoculum of 10^2 organisms): 0.025 µg/mL (≈ 0.0602 µM) | MIC (Staphylococcus Aureus; Lacking penicillinase, 3 strains, B, inoculum of 10^6 organisms): 0.039 µg/mL (≈ 0.0939 µM) | MIC (Staphylococcus Aureus; Penicillinase producer, 26 strains, A, Inoculum of 10^2 organisms): 0.077 µg/mL (≈ 0.185 µM) | MIC (Staphylococcus Aureus; Penicillinase producer, 26 strains, B, inoculum of 10^6 organisms): 1.6 µg/mL (≈ 3.85 µM) | effect of cell concentration on growth inhibitory activity (Staphylococcus Aureus; penicillinase-producing strains): sharply | MBC (Klebsiella pneumoniae; [3]): 4 µg/mL (≈ 9.63 µM) | MIC (Klebsiella pneumoniae; [3]): 2 µg/mL (≈ 4.81 µM) | MBC (Klebsiella pneumoniae; [4]): 4 µg/mL (≈ 9.63 µM) | MIC (Klebsiella pneumoniae; [4]): 4 µg/mL (≈ 9.63 µM) | MBC (Klebsiella pneumoniae; [5]): 2 µg/mL (≈ 4.81 µM) | MIC (Klebsiella pneumoniae; [5]): 2 µg/mL (≈ 4.81 µM) | MBC (Klebsiella pneumoniae; [6]): 4 µg/mL (≈ 9.63 µM) | MIC (Klebsiella pneumoniae; [6]): 4 µg/mL (≈ 9.63 µM) | MBC (Klebsiella pneumoniae; [7]): 8 µg/mL (≈ 19.3 µM) | MIC (Klebsiella pneumoniae; [7]): 8 µg/mL (≈ 19.3 µM) | MBC (Klebsiella pneumoniae; [8]): 2 µg/mL (≈ 4.81 µM) | MIC (Klebsiella pneumoniae; [8]): 2 µg/mL (≈ 4.81 µM) | MBC (Proteus mirabilis; [9]): 16 µg/mL (≈ 38.5 µM) | MIC (Proteus mirabilis; [9]): 8 µg/mL (≈ 19.3 µM) | MBC (Proteus mirabilis; [10]): 8 µg/mL (≈ 19.3 µM) | MIC (Proteus mirabilis; [10]): 8 µg/mL (≈ 19.3 µM) | MBC (Proteus mirabilis; [11]): 8 µg/mL (≈ 19.3 µM) | MIC (Proteus mirabilis; [11]): 8 µg/mL (≈ 19.3 µM) | MBC (Proteus mirabilis; [12]): 8 µg/mL (≈ 19.3 µM) | MIC (Proteus mirabilis; [12]): 8 µg/mL (≈ 19.3 µM) | MBC (Proteus mirabilis; [13]): 8 µg/mL (≈ 19.3 µM) | MIC (Proteus mirabilis; [13]): 4 µg/mL (≈ 9.63 µM) | MBC (Proteus vulgaris; Proteus vulgaris strain 1): 8 µg/mL (≈ 19.3 µM) | MIC (Proteus vulgaris; Proteus vulgaris strain 1): 8 µg/mL (≈ 19.3 µM) | MBC (Proteus vulgaris; Proteus vulgaris strain 2): 16 µg/mL (≈ 38.5 µM) | MIC (Proteus vulgaris; Proteus vulgaris strain 2): 8 µg/mL (≈ 19.3 µM) | MBC (Proteus vulgaris; Proteus vulgaris strain 4): 16 µg/mL (≈ 38.5 µM) | MIC (Proteus vulgaris; Proteus vulgaris strain 4): 8 µg/mL (≈ 19.3 µM) | ED50 (Enterobacter cloacae; Enterobacter cloacae, 3.5 h, read-out: PD50 /treatment): 200 mg/kg | PD50 /treatment (Enterobacter cloacae; mouse, in vivo): > 400 mg/kg | dose excreted at 24 h [1]: 59% | MIC (Edwardsiella tarda): 1 µg/mL (≈ 2.41 µM) | MIC (Pasteurella multocida): 0.5 µg/mL (≈ 1.2 µM) | MIC [2]: 32 µg/mL (≈ 77 µM) | relative activity against Haemophilus influenzae (Haemophilus influenzae): about equally active | MIC (Escherichia coli; read-out: Minimum Inhibitory Concentration, Escherichia coli strain 1, A, Inoculum of 10^2 organisms): 2 µg/mL (≈ 4.81 µM) | MIC (Escherichia coli; read-out: Minimum Inhibitory Concentration, Escherichia coli strain 1, B, Inoculum of 10^6 organisms): 8 µg/mL (≈ 19.3 µM)

— patent publication US4100346A, “Certain 7(o-amino-methyl- or methylaminomethylphenyl- or cyclohexadienyl- or thienylacetamide)-3[1-carboxymethyl-(or ethyl- or propyl-)-tetrazol-5-ylthiomethyl]-3-cephem-4-carboxylic acids” (Bristol-Myers Company, priority 1976, dated 1978)
